In patent US20060148838A1, “Novel pyrrolodihydroisoquinolines useful in the treatment of cancer” (Altana Pharma AG, priority 2003, published 2006):

Assays:
[1] = tested on: NCl-H460 non-small cell lung cancer cells; experiment: Alamar Blue cell viability assay, anti-proliferative/cytotoxic activity; format: cell-based; details: 72 hours incubation, one range stated for all listed Examples, read-out: −log IC50 NCl-H460 (converted)
Description: The anti-proliferative/cytotoxic activity of the compounds described herein, can be tested on NCl-H460 non-small cell lung cancer cells using the Alamar Blue cell viability assay (described in O'Brien et al. Eur J Biochem 267, 5421-5426, 2000). The compounds are dissolved as 20 mM solutions in dimethylsulfoxide (DMSO) and subsequently diluted in semi-logarithmic steps. DMSO dilutions are further diluted 1:100 into Dulbecco's modified Eagle's medium (DMEM) containing 10% fetal calf serum to a final concentration twice as much as the final concentration in the test. NCl-460 cells are seeded into 96 well flat bottom plates at a density of 4000 cells per well in a volume of 50 μl per well. 24 hours after seeding the 50 μl each of the compound dilutions in DMEM medium are added into each well of the 96 Well plate. Each compound dilution is tested as quadruplicates. Wells containing untreated control cells are filled with 50 μl DMEM medium containing 1% DMSO. The cells are then incubated with the substances for 72 hours at 37° C. In a humified atmosphere containing 5% carbon dioxide. To determine the viability of the cells, 10 μl of an Alamar Blue solution (Biosource) are added and the fluorescence is measured at an extinction of 544 nm and an emission of 590 nm. For the calculation of cell viability the emission value from untreated cells is set to 100% viability and the emission rates of treated cells are set in relation to the values of untreated cells. Viabilities are expressed as % values.
The corresponding IC50 values of the compounds for anti-proliferative/cytotoxic activity are determined from the concentration-effect curves.
Representative advantageous IC50 values for anti-proliferation/cytotoxicity determined for the compounds mentioned and numbered as Examples in the examples above follow from the following table A, in which the numbers of the compound correspond to the numbers of the examples.

| melting point | Structure (SMILES) | IC50 [1] |
| --- | --- | --- |
| 104 to 106 °C | CCOC(=O)c1c(-c2cc(C)c(O)c(C)c2)c(C)n2c1-c1cc(N)c(OC)cc1CC2 [Example 25, 9-Amino-2-(4-hydroxy-3,5-dimethyl-phenyl)-8-methoxy-3-methyl-5,6-dihydro-pyrrolo[2,1-a]isoquinoline-1-carboxylic acid ethyl ester] | 0.398 to 3.16 µM |
| 273 to 276 °C | COc1cc2c(cc1OC)-c1c(C(=O)NC3CCCCC3)c(-c3cc(C)c(O)c(C)c3)c(C)n1CC2 [Example 28, 2-(4-Hydroxy-3,5-dimethyl-phenyl)-8,9-dimethoxy-3-methyl-5,6-dihydro-pyrrolo[2,1-a]isoquinoline-1-carboxylic acid cyclohexyl amide] | 0.398 to 3.16 µM |
| 271 to 273 °C | COc1cc2c(cc1OC)-c1c(C(=O)Nc3ccccc3)c(-c3cc(C)c(O)c(C)c3)c(C)n1CC2 [Example 34, 2-(4-Hydroxy-3,5-dimethyl-phenyl)-8,9-dimethoxy-3-methyl-5,6-dihydro-pyrrolo[2,1-a]isoquinoline-1-carboxylic acid phenylamide] | 0.398 to 3.16 µM |
| 238 to 240 °C | CCC(C)NC(=O)c1c(-c2cc(C)c(O)c(C)c2)c(C)n2c1-c1cc(OC)c(OC)cc1CC2 (centres unmarked) [Example 36, 2-(4-Hydroxy-3,5-dimethyl-phenyl)-8,9-dimethoxy-3-methyl-5,6-dihydro-pyrrolo[2,1-a]isoquinoline-1-carboxylic acid sec-butylamide] | 0.398 to 3.16 µM |
